Source: US6562853B2, “2,5-dioxo-3-(2-propynyl)imidazolidin-1-ylmethyl 2,2-dimethyl-3-(alenyl) cyclopropane carboxylate compounds and pesticidal methods and compositions utilizing the same” (Sumitomo Chemical Company, Limited, priority 2001, dated 2003)

How the values were obtained:
[1] = test system: adult female common mosquitoes; test: Knockdown of common mosquitoes by oily formulation sprayed into 70 cm cubic chamber (Test Example 3); format: in vivo, common mosquito (Culex pipiens pallens); conditions: 0.00625% oily formulation, 0.7 ml sprayed into 70 cm cubic chamber; 10 adult female common mosquitoes; counted over 10 minutes
Text: Three (3) 0.00625% oily formulations were produced with the following pesticidal compounds: […]
In the compound encompassed by formula (A), the weight ratio of trans isomers thereof to the cis isomers thereof is 8:2. The 0.00625% oily formulations were produced by dissolving, respectively, 0.00625 parts of the above pesticidal compounds in 10 parts of dichloromethane and by mixing each of the resulting mixture with 89.99375 parts of deodorized kerosene.
Ten (10) adult female common mosquitoes were released in each of the cubic chambers having a side length of 70 cm. Seven-tenths milliliters (0.7 ml) of the 0.00625% oily formulations were then sprayed, respectively, into each of the chambers from the side windows of the chambers, utilizing spray guns set to a pressure of 8.8×10^4 Pa. The numbers of knockdowned common mosquitoes were counted periodically over 10 minutes. The times utilized to knockdown half of the tested common mosquitoes (KT50) were determined from the number of knockdowned common mosquitoes.

Adult houseflies [2] = test: Knockdown rate of houseflies in plastic cup after direct spray of oily formulation (Test Example 2); format: in vivo, housefly (Musca domestica); conditions: 0.1% oily formulation (table), 0.5 ml sprayed from about 30 cm above cup; 10 adult houseflies; counted 10 seconds thereafter
Procedure: A 0.1% oily formulation was produced by dissolving 0.1 part of the present invention compound 1 in 10 parts of dichloromethane and by mixing the resulting mixture with 89.9 parts of deodorized kerosene.
Ten (10) adult houseflies (5 of each male and female) were placed in a 650 ml plastic cup. The opening of the plastic cup was covered with a nylon mesh to confine the houseflies to the plastic cup. The plastic cup was placed on top of a metal screen placed in a metal chamber having the dimensions 46 cm×46 cm×70 cm. Five-tenths milliliters (0.5 ml) of the […] oily formulation was then sprayed from about 30 cm above the top area of the plastic cup, utilizing a spray gun set to a pressure of 8.8×10^4 Pa. The number of knockdowned houseflies were counted 10 seconds thereafter. The knockdown rate was determined from the number of knockdowned houseflies achieved. The knockdown rate was 95%.

Adult houseflies [3] = test: Knockdown of houseflies by oily formulation sprayed into 70 cm cubic chamber (Test Example 1); format: in vivo, housefly (Musca domestica); conditions: 0.025% oily formulation, 0.7 ml sprayed into 70 cm cubic chamber; 5 male and 5 female adult houseflies; counted over 10 minutes
Procedure: A 0.025% oily formulation was produced by dissolving 0.025 parts of the present invention compound 1 in 10 parts of dichloromethane and by mixing the resulting mixture with 89.975 parts of deodorized kerosene.
Adult houseflies (5 of each male and female) were released in a cubic chamber having a side length of 70 cm. Seven-tenths milliliters (0.7 ml) of the 0.025% oily formulation was then sprayed into the chamber from a side window of the chamber, utilizing a spray gun set to a pressure of 8.8×10^4 Pa. The number of knockdowned houseflies was counted periodically over 10 minutes. The time utilized to knockdown half of the tested houseflies (KT50) was determined from the number of knockdowned houseflies. The KT50 was 2.3 minutes.

| Compound | KT50 (time utilized to knockdown half of the tested common mosquitoes) [1] [min] | Knockdown rate (Adult houseflies [2]) [%] | KT50 (time utilized to knockdown half of the tested houseflies) (Adult houseflies [3]) [min] |
| --- | --- | --- | --- |
| C#CCN1CC(=O)N(COC(=O)C2C(C=C(C)C)C2(C)C)C1=O (single isomer, unassigned) [Compound c, reference compound] | 2.9 | – | – |
| C#CCN1CC(=O)N(COC(=O)[C@@H]2[C@@H](/C=C\C)C2(C)C)C1=O [Present invention compound 1, 2,5-dioxo-3-(2-propynyl)imidazolidin-1-ylmethyl (1R)-trans-2,2-dimethyl-3-((Z)1-propenyl)cyclopropanecarboxylate] | 0.99 | 95 | 2.3 |
| C#CCN1CC(=O)N(COC(=O)[C@@H]2[C@H](/C=C\C)C2(C)C)C1=O [Present invention compound 3, 2,5-dioxo-3-(2-propynyl)imidazolidin-1-ylmethyl (1R)-cis-2,2-dimethyl-3-((Z)1-propenyl)cyclopropanecarboxylate] | 1.4 | – | – |
